Experiments:
Assay in all cases: KINOMEscan kinase binding assay
[1] = system: ABL1(F317L)-nonphosphorylated; conditions: at 1 μM
Experimental: (§1) Kinase binding assays were performed at Eurofins/DiscoveRx using the general KINOMEscan Protocol (Fabian, M. A. et al., “A small molecule-kinase interaction map for clinical kinase inhibitors,” Nat. Biotechnol. 2005, 23(3):329-36). For most assays, kinase-tagged T7 phage strains were prepared in an E. coli host derived from the BL21 strain. E. coli were grown to log-phase and infected with T7 phage and incubated with shaking at 32° C. until lysis. The lysates were centrifuged and filtered to remove cell debris. The remaining kinases were produced in HEK-293 cells and subsequently tagged with DNA for qPCR detection. Streptavidin-coated magnetic beads were treated with biotinylated small molecule ligands for 30 minutes at room temperature to generate affinity resins for kinase assays. The liganded beads were blocked with excess biotin and washed with blocking buffer (SeaBlock (Pierce), 1% BSA, 0.05% Tween 20, 1 mM DTT) to remove unbound ligand and to reduce nonspecific binding. Binding reactions were assembled by combining kinases, liganded affinity beads, and test compounds in 1× binding buffer (20% SeaBlock, 0.17×PBS, 0.05% Tween 20, 6 mM DTT). All reactions were performed in polystyrene 96-well plates in a final volume of 0.135 mL. The assay plates were incubated at room temperature with shaking for 1 hour and the affinity beads were washed with wash buffer (1×PBS, 0.05% Tween 20). The beads were then re-suspended in elution buffer (1×PBS, 0.05% Tween 20, 0.5 μM non-biotinylated affinity ligand) and incubated at room temperature with shaking for 30 minutes. The kinase concentration in the eluates was measured by qPCR. Results for compounds tested in this assay at a given concentration are reported as “% Ctrl”, where lower numbers indicate stronger binding in the matrix. % Ctrl was calculated as (test compound signal-positive control signal)/(negative control signal-positive control signal)×100. Dissociation constants (Kds) for test compound-kinase interactions were calculated by measuring the amount of kinase captured on the solid support as a function of the test compound concentration.

[2] = system: ABL1(F317L)-phosphorylated; conditions: at 1 μM
Experimental: as §1

[3] = system: ABL1(Q252H)-phosphorylated; conditions: at 1 μM
Experimental: as §1

[4] = system: ABL1-phosphorylated; conditions: at 1 μM
Experimental: as §1

[5] = system: BLK; conditions: at 1 μM
Experimental: as §1

[6] = system: BMX; conditions: at 1 μM
Experimental: as §1

[7] = system: BTK; conditions: at 1 μM
Experimental: as §1

[8] = system: DDR1; conditions: at 1 μM
Experimental: as §1

[9] = system: EGFR(S752-1759del); conditions: at 1 μM
Experimental: as §1

[10] = system: EGFR(T790M); conditions: at 1 μM
Experimental: as §1

[11] = system: EPHA3; conditions: at 1 μM
Experimental: as §1

[12] = system: EPHB3; conditions: at 1 μM
Experimental: as §1

[13] = system: ERBB3; conditions: at 1 μM
Experimental: as §1

[14] = system: FGFR3(G697C); conditions: at 1 μM
Experimental: as §1

[15] = system: FGFR3; conditions: at 1 μM
Experimental: as §1

[16] = system: FGFR4; conditions: at 1 μM
Experimental: as §1

[17] = system: FLT1; conditions: at 1 μM
Experimental: as §1

[18] = system: FLT3(D835Y); conditions: at 1 μM
Experimental: as §1

[19] = system: FLT3(K663Q); conditions: at 1 μM
Experimental: as §1

[20] = system: FLT3(N841I); conditions: at 1 μM
Experimental: as §1

[21] = system: FYN; conditions: at 1 μM
Experimental: as §1

[22] = system: HCK; conditions: at 1 μM
Experimental: as §1

[23] = system: IGF1R; conditions: at 1 μM
Experimental: as §1

[24] = system: INSR; conditions: at 1 μM
Experimental: as §1

[25] = system: JAK3(JH1domain-catalytic)
Experimental: as §1

[26] = system: KIT(V559D, T670I); conditions: at 1 μM
Experimental: as §1

[27] = system: KIT(V559D, V654A); conditions: at 1 μM
Experimental: as §1

[28] = system: KIT-autoinhibited; conditions: at 1 μM
Experimental: as §1

[29] = system: KIT; conditions: at 1 μM
Experimental: as §1

[30] = system: LCK; conditions: at 1 μM
Experimental: as §1

[31] = system: LYN; conditions: at 1 μM
Experimental: as §1

[32] = system: MST1R; conditions: at 1 μM
Experimental: as §1

[33] = system: RET(M918T); conditions: at 1 μM
Experimental: as §1

[34] = system: RET; conditions: at 1 μM
Experimental: as §1

[35] = system: ROS1; conditions: at 1 μM
Experimental: as §1

[36] = system: SRC; conditions: at 1 μM
Experimental: as §1

[37] = system: TEC; conditions: at 1 μM
Experimental: as §1

[38] = system: TIE2; conditions: at 1 μM
Experimental: as §1

[39] = system: TRKC; conditions: at 1 μM
Experimental: as §1

[40] = system: TYRO3; conditions: at 1 μM
Experimental: as §1

[41] = system: ZAP70; conditions: at 1 μM
Experimental: as §1

In the case of `Cc1cc2c([nH]1)/C=C1\C(=O)Nc3c(Cl)cc(cc31)-c1cn(C)nc1COC[C@@H](C)N(C)C2=O` [Cpd. 5, [3a(4)Z,10R]-20-chloro-6,9,10,15-tetramethyl-10,11,13,15-tetrahydro-2H-1,17-(ethanediylidene)pyrazolo[4,3-m]dipyrrolo[3,2-f:3′,4′-i][1,4]oxazacyclopentadecine-3,8(5H,9H)-dione], the “% Ctrl” value [1] is reported as 86%, the “% Ctrl” value [2] is reported as 83% and the “% Ctrl” value [3] is reported as 89%. The “% Ctrl” value [4] was 79%, the “% Ctrl” value [5] was 87% and the “% Ctrl” value [6] was 100%. For the same compound, the “% Ctrl” value [7] was 68%, the “% Ctrl” value [8] was 93% and the “% Ctrl” value [9] was 100%. The “% Ctrl” value [10] was 80%, the “% Ctrl” value [11] was 79% and the “% Ctrl” value [12] was 89%. The “% Ctrl” value [13] was 71%, the “% Ctrl” value [14] was 93% and the “% Ctrl” value [15] was 90%. The “% Ctrl” value [16] was 88%, the “% Ctrl” value [17] was 93% and the “% Ctrl” value [18] was 100%. For the same compound, the “% Ctrl” value [19] was 87%, the “% Ctrl” value [20] was 86% and the “% Ctrl” value [21] was 77%. The “% Ctrl” value [22] was 100%, the “% Ctrl” value [23] was 98% and the “% Ctrl” value [24] was 94%. For the same compound, the “% Ctrl” value ([25]; JAK3(JH1domain-catalytic), at 1 μM) was 79%, the Kd ([25]; read-out: JAK3(JH1 domain-catalytic) Kd) was > 10 µM and the “% Ctrl” value [26] was 95%. The “% Ctrl” value [27] was 91%, the “% Ctrl” value [28] was 83% and the “% Ctrl” value [29] was 98%. The “% Ctrl” value [30] was 94%, the “% Ctrl” value [31] was 91% and the “% Ctrl” value [32] was 95%. For the same compound, the “% Ctrl” value [33] was 87%, the “% Ctrl” value [34] was 95% and the “% Ctrl” value [35] was 69%. For the same compound, the “% Ctrl” value [36] was 100%, the “% Ctrl” value [37] was 94% and the “% Ctrl” value [38] was 92%. The “% Ctrl” value [39] was 98%, the “% Ctrl” value [40] was 84% and the “% Ctrl” value [41] was 63%.
